For one test, the target named is T1, PbdA S87A/S237A (Rhodococcus jostii, UniProt Q0SCI3, S235A/S85A).
T1 construct: hexaHis (N, cleaved yes); made in house; host or cells: PbdA variant: E. coli BL-21 λ (DE3); PbdB: Rhodococcus jostii RHA1
Put plainly: Substrate binding to PbdA S87A/S237A variant by spectral titration. Also noted: species or system Rhodococcus jostii RHA1. As for the experimental part: UV-visible spectroscopy was conducted with a Cary 60 spectrophotometer equipped with a thermostatted cuvette holder at 25 °C. Scans of purified proteins diluted in 20 mM Mops, I = 0.1 M, pH 7.2 were taken between 250 and 700 nm. Heme concentration was calculated as described previously ([35]). Carbon monoxide binding was determined by reduction of PbdA diluted in 20 mM Mops, I = 0.1 M, pH 7.2 as above by a few grains of […]. CO was bubbled into the reduced enzyme for approximately 60 s at a rate of one bubble per second. Dissociation constants (Kd) were determined by titration of ligands diluted into enzyme buffer from 1 M stocks prepared in dimethyl sulfoxide into PbdA diluted in 20 mM Mops, I = 0.1 M, pH 7.2. Spectra take upon addition of substrate were subtracted from the spectrum of the enzyme, and peak-to-trough distance was plotted by ligand concentration. Kd values were determined by fitting a hyperbolic equation to the data as described previously ([23], [36]). The proportion of high-spin heme iron was determined using the approximate peak-to-trough extinction coefficient (ε ≈ 100 mM^−1 cm^−1) ([36]).

The target in a further test is T2, PbdA (Rhodococcus jostii, UniProt Q0SCI3).
T2 sequence (Q0SCI3 1-400): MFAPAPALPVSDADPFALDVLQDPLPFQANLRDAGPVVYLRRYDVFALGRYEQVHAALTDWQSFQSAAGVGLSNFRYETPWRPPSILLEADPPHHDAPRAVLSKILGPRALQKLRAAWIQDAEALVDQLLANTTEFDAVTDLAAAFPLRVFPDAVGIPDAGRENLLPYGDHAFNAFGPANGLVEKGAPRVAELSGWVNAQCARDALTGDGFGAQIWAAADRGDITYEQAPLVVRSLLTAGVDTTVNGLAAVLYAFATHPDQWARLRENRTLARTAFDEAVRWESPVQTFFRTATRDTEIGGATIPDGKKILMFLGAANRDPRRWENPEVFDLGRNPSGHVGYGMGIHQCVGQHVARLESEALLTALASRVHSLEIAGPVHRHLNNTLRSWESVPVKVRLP
As for the experimental part:
We then measured coupling under optimum conditions for other substrates. […] Finally, we measured the apparent steady-state kinetic parameters of the PbdA reaction under conditions of maximal coupling (Fig. S4).
For activity measurements 0.25 to 1 μM of PbdA and PbdB were combined in a 200 μl cuvette in 20 mM Mops, pH 7.2 with substrate diluted in the same buffer. NADH was added to 350 μM to initiate the reaction. For HPLC analysis, enzymatic reactions were acidified by adding acetic acid to 10% final concentration, centrifuged (16,000×g for 10 min), and filtered through a 0.2 μm polytetrafluoroethylene membrane. Samples were run over a Luna 5 μm C18(2) 100 Å 150 × 3 mm column (Phenomenex) at 0.7 ml min^−1 by a Waters 2695 separation HPLC module. Samples were eluted with a 16.8 ml linear gradient from 1% methanol plus 0.1% formic acid in water to 100% methanol plus 0.1% formic acid and monitored at 280 nm with a Waters 2996 photodiode array detector. Concentrations were determined by interpolation on a standard curve of 0 to 1 mM of authentic standard. NADH concentration was measured by absorbance at 340 nm, ε = 6.22 mM^-1 cm^-1. Coupling was calculated from the ratio of rate of aromatic turnover, as determined by HPLC, and the rate of NADH oxidation, determined spectroscopically. Buffer ionic strength was adjusted by addition of NaCl, as appropriate. Apparent steady-state kinetic parameters were calculated by fitting Michaelis–Menten equations to initial velocity of reactions at various concentrations of aromatic substrate (LEONORA).

Molecules are shown by their SMILES.

T1 sequence (Q0SCI3 entry or part of it S85A/S235A): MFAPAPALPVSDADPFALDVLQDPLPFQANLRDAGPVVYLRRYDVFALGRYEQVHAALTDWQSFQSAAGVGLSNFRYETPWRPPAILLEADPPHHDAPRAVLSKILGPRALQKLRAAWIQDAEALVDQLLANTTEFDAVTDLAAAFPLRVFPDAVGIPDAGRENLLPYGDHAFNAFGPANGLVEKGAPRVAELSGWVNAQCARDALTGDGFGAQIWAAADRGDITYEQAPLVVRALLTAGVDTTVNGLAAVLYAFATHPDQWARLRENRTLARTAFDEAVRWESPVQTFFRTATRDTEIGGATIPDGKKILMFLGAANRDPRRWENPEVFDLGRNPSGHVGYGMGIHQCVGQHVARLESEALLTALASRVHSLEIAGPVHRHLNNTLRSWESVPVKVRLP

As usually defined, the Kd is the constant that tells how readily two partners part at equilibrium. Read a low Kd as a tighter complex. As a reminder, the Km is the substrate concentration at which the rate is half of its maximum. The compound `COc1ccc(C(=O)O)cc1` [p-MBA, p-methoxybenzoate] gave a Kd on PbdA S87A/S237A of 70 µM. Further, the “ΔG°” value at PbdA S87A/S237A (S87A/S237A variant, binding energy) is -5.7 kcal/mol. Besides, at PbdA S87A/S237A (S87A/S237A variant, comparison of ΔG° of variant to wild type), the “ΔΔG°” value stood at 1.7 kcal/mol. For the same compound, on PbdA (WT PbdA with PbdB, air-saturated Mops (I = 0.1 M), pH 7.2, 25 °C, SD in parentheses), the “kcat (apparent)” value is reported as 0.37 (0.02) s^−1. Moreover, the Specific activity on PbdA (WT PbdA, O-demethylation, SD in brackets) is 2700 (100) U μg P450^-1. In addition, the NADH depletion rate at PbdA (WT PbdAB, air-saturated MOPS (I = 0.1 M), pH 7.2, 25 °C, SD in parentheses) was 2700 (100) U mg P450^-1. In addition, at PbdA (WT PbdAB, appearance of O-demethylated product (disappearance of p-EB), SD in parentheses), the “Rate of Aromatic turnover” value is listed as 2700 (200) U mg P450^-1. In addition, the Coupling at PbdA (WT PbdAB, ratio of aromatic turnover rate to NADH oxidation rate) is reported as 100 (3) %. Moreover, the Km at PbdA (read-out: KM (apparent), WT PbdA with PbdB, air-saturated Mops (I = 0.1 M), pH 7.2, 25 °C, SD in parentheses) worked out at 18 µM.

The values above are taken from paper PMC11530827, “Characterization of a cytochrome P450 that catalyzes the O-demethylation of lignin-derived benzoates” (The Journal of Biological Chemistry, 2024).
